Assay results taken from ChEMBL document CHEMBL5625253, “Discovery of novel benzofuran-based derivatives as acetylcholinesterase inhibitors for the treatment of Alzheimer's disease: Design, synthesis, biological evaluation, molecular docking and 3D-QSAR investigation” (Eur J Med Chem, 2023).
The source made the active and inactive calls. The rule behind the calls is not given here.

Experiments:
[1] = Antioxidant activity assessed as DPPH radical scavenging activity at 0.05 ug/ml incubated for 1 hr under dark condition by absorbance based assay relative to control; type: functional; conditions: dose 0.05 µg/ml
[2] = Antioxidant activity assessed as DPPH radical scavenging activity at 0.01 ug/ml incubated for 1 hr under dark condition by absorbance based assay relative to control; type: functional; conditions: dose 0.01 µg/ml
Acetylcholinesterase = Acetylcholinesterase (Homo sapiens, UniProt P22303); assay: Inhibition of AChE (unknown origin) using […] as substrate incubated for 15 to 20 mins by DTNB reagent based Ellman's method
Rattus norvegicus [3] = assay: Antialzheimer activity against AlCl3-induced Alzheimer's disease Wistar albino rat model assessed as change in GSH level in brain at 10 mg/kg,po for 6 weeks relative to control; type: functional
Rattus norvegicus [4] = assay: Antialzheimer activity against AlCl3-induced Alzheimer's disease Wistar albino rat model assessed as change in MDA level in brain at 10 mg/kg,po for 6 weeks relative to control; type: functional
Rattus norvegicus [5] = assay: Antialzheimer activity against AlCl3-induced Alzheimer's disease Wistar albino rat model assessed as gliosis at 10 mg/kg,po for 6 weeks by hematoxylin and eosin staining based microscopic analysis; type: functional
Rattus norvegicus [6] = assay: Antialzheimer activity against AlCl3-induced Alzheimer's disease Wistar albino rat model assessed as GSH level in brain at 10 mg/kg,po for 6 weeks; type: functional
Rattus norvegicus [7] = assay: Antialzheimer activity against AlCl3-induced Alzheimer's disease Wistar albino rat model assessed as improvement in MDA level in brain at 10 mg/kg,po for 6 weeks relative to control; type: functional
Rattus norvegicus [8] = assay: Antialzheimer activity against AlCl3-induced Alzheimer's disease Wistar albino rat model assessed as MDA level in brain at 10 mg/kg,po for 6 weeks; type: functional
Rattus norvegicus [9] = assay: Antialzheimer activity against AlCl3-induced Alzheimer's disease Wistar albino rat model assessed as improvement in GSH level in brain at 10 mg/kg,po for 6 weeks relative to control; type: functional
Rattus norvegicus [10] = assay: Antialzheimer activity against AlCl3-induced Alzheimer's disease Wistar albino rat model assessed as improvement in cognitive ability at 10 mg/kg,po for 6 weeks by T-maze test; type: functional
Rattus norvegicus [11] = assay: Antialzheimer activity against AlCl3-induced Alzheimer's disease Wistar albino rat model assessed as time taken to reach the food at 10 mg/kg,po for 6 weeks by T-maze test; type: functional
Rattus norvegicus [12] = assay: Antialzheimer activity against AlCl3-induced Alzheimer's disease Wistar albino rat model assessed as degeneration of pyramidal neurons in hippocampus at 10 mg/kg,po for 6 weeks by hematoxylin and eosin staining based microscopic analysis; type: functional
[13] = Toxicity in Wistar rat assessed as albumin level in liver at 10 mg/kg,po (reference value: 3.28 +/- 0.43 mg/dl); type: organism-based; conditions: in vivo
[14] = Toxicity in Wistar rat assessed as histopathological change in kidney at 10 mg/kg,po by hematoxylin and eosin staining based microscopic analysis; type: organism-based; conditions: in vivo
[15] = Toxicity in Wistar rat assessed as creatinine level in liver at 10 mg/kg,po (reference value: 0.68 +/- 0.03 mg/dl); type: organism-based; conditions: in vivo
[16] = Acute toxicity in Wistar rat assessed as mortality at 10 mg/kg,po administrated for 1 month; type: organism-based; conditions: in vivo, 730 h, time 1 months
[17] = Acute toxicity in Wistar rat assessed as mortality at 50 mg/kg,po observed after 24 hrs; type: organism-based; conditions: in vivo
[18] = Toxicity in Wistar rat assessed as […] cell volume in blood at 10 mg/kg,po (reference value: 43 +/- 3.1 %); type: organism-based; conditions: in vivo
[19] = Toxicity in Wistar rat assessed as ALT level in liver at 10 mg/kg,po (reference value: 27 +/- 2 U/L); type: organism-based; conditions: in vivo
[20] = Toxicity in Wistar rat assessed as bilirubin level in liver at 10 mg/kg,po (reference value: 0.6 +/- 0.08 mg/dl); type: organism-based; conditions: in vivo
[21] = Acute toxicity in Wistar rat assessed as loose bowels at 10 mg/kg,po administrated for 1 month; type: organism-based; conditions: in vivo, 730 h, time 1 months
[22] = Acute toxicity in Wistar rat assessed as mortality at 100 mg/kg,po observed after 24 hrs; type: organism-based; conditions: in vivo
[23] = Toxicity in Wistar rat assessed as RBC level in blood at 10 mg/kg,po; type: organism-based, Erythrocyte; conditions: in vivo
[24] = Acute toxicity in Wistar rat assessed as mortality at 50 mg/kg,po observed after 1 month; type: organism-based; conditions: in vivo, 730 h, time 1 months
[25] = Toxicity in Wistar rat assessed as red blood cell distribution width in blood at 10 mg/kg,po (reference value: 17.2 +/- 0.22 %); type: organism-based; conditions: in vivo
[26] = Toxicity in Wistar rat assessed as mean platelet volume in blood at 10 mg/kg,po (reference value: 7.3 +/- 0.12 fL); type: organism-based; conditions: in vivo
[27] = Toxicity in Wistar rat assessed as Kupffer cell proliferation in liver at 10 mg/kg,po by hematoxylin and eosin staining based microscopic analysis; type: organism-based; conditions: in vivo
Rattus norvegicus [28] = assay: Antialzheimer activity against AlCl3-induced Alzheimer's disease Wistar albino rat model assessed as decrease in cellular density in hippocampal region of brain at 10 mg/kg,po for 6 weeks by hematoxylin and eosin staining based microscopic analysis; type: functional, organism-based
[29] = Toxicity in Wistar rat assessed as haematocrit level in blood at 10 mg/kg,po (reference value: 38.16 +/- 2.44 %); type: organism-based; conditions: in vivo
[30] = Toxicity in Wistar rat assessed as urea level in liver at 10 mg/kg,po (reference value: 33.6 +/- 2.65 mg/dl); type: organism-based; conditions: in vivo
[31] = Toxicity in Wistar rat assessed as glucose level in liver at 10 mg/kg,po (reference value: 105 +/- 8.44 mg/dl); type: organism-based; conditions: in vivo
[32] = Toxicity in Wistar rat assessed as mean corpuscular volume in blood at 10 mg/kg,po (reference value: 59 +/- 5 fL); type: organism-based; conditions: in vivo
[33] = Toxicity in Wistar rat assessed as ALP level in liver at 10 mg/kg,po (reference value: 140 +/- 6 U/L); type: organism-based; conditions: in vivo
[34] = Toxicity in Wistar rat assessed as hemoglobin level in blood at 10 mg/kg,po (reference value: 14.5 +/- 1 g/dl); type: organism-based; conditions: in vivo
[35] = Toxicity in Wistar rat assessed as mean corpuscular hemoglobin in blood at 10 mg/kg,po (reference value: 19 +/- 1.77 pg); type: organism-based; conditions: in vivo
[36] = Toxicity in Wistar rat assessed as histopathological change in heart at 10 mg/kg,po by hematoxylin and eosin staining based microscopic analysis; type: organism-based; conditions: in vivo
[37] = Toxicity in Wistar rat assessed as AST level in liver at 10 mg/kg,po (reference value: 67 +/- 5.1 U/L); type: organism-based; conditions: in vivo
[38] = Toxicity in Wistar rat assessed as histopathological change in brain at 10 mg/kg,po by hematoxylin and eosin staining based microscopic analysis; type: organism-based; conditions: in vivo
[39] = Acute toxicity in Wistar rat assessed as mortality at 100 mg/kg,po observed after 1 month; type: organism-based; conditions: in vivo, 730 h, time 1 months
[40] = Toxicity in Wistar rat assessed as mean corpuscular hemoglobin concentration in blood at 10 mg/kg,po (reference value: 33.8 +/- 2.1 g/dl); type: organism-based; conditions: in vivo

Sequence of Acetylcholinesterase (P22303 whole entry): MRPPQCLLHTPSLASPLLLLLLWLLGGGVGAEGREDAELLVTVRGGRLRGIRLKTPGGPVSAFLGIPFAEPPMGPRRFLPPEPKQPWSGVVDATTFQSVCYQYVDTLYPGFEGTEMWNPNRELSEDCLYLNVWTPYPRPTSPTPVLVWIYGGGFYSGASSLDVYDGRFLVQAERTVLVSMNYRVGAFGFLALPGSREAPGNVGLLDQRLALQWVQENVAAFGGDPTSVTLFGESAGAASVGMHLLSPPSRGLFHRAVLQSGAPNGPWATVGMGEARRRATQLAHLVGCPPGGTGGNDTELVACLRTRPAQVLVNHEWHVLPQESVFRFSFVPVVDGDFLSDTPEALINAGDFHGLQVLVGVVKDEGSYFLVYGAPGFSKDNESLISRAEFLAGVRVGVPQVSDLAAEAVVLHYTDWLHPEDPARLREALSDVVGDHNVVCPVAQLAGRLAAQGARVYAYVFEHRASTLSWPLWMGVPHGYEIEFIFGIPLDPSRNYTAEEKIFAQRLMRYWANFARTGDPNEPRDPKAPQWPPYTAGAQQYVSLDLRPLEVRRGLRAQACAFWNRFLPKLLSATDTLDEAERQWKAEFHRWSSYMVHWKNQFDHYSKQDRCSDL

## O=C1O[C@H]([C@@H](O)CO)C(O)=C1O
[1]
  Activity: 89%
[2]
  Activity: 81%

## Cc1cccc(N/C=C/C(=O)c2cc3ccccc3o2)c1
[1]
  Activity: 14.3%
Acetylcholinesterase
  IC50: 617 nM
[2]
  Activity: 12.1%

## N=C(N)NS(=O)(=O)c1ccc(N/C=C/C(=O)c2cc3ccccc3o2)cc1
[1]
  Activity: 35%
Acetylcholinesterase
  IC50: 908 nM
[2]
  Activity: 25%

## COc1cc2c(cc1OC)C(=O)C(CC1CCN(Cc3ccccc3)CC1)C2 (configuration not stated) [DONEPEZIL]
Rattus norvegicus [3]
  Activity: 18.05%
Rattus norvegicus [4]
  Activity: 67.86%
Rattus norvegicus [5]
  Activity: <10%
Rattus norvegicus [6]
  Activity: 17.62 mg
[1]
  Activity: 30.2%
Rattus norvegicus [7]
  Activity: 278.43%
[2]
  Activity: 20.4%
Rattus norvegicus [8]
  Activity: 47.17 nmol
Rattus norvegicus [9]
  Activity: 33.02%
Rattus norvegicus [10]
  Activity: 112.14%
Rattus norvegicus [11]
  Time: 26 s
Rattus norvegicus [12]
  Activity: <10%

## O=C(/C=C/Nc1cccc(Br)c1)c1cc2ccccc2o1
[1]
  Activity: 17.9%
Acetylcholinesterase
  IC50: 313 nM
[2]
  Activity: 9.29%

## O=C(/C=C/Nc1ccc(S(=O)(=O)Nc2ncccn2)cc1)c1cc2ccccc2o1
[1]
  Activity: 37.5%
Acetylcholinesterase
  IC50: 357 nM
[2]
  Activity: 5%

## O=C(O)c1ccc(N/C=C/C(=O)c2cc3ccccc3o2)cc1
[1]
  Activity: 35%
Acetylcholinesterase
  IC50: 794 nM
[2]
  Activity: 5.71%

## Cc1cc(NS(=O)(=O)c2ccc(N/C=C/C(=O)c3cc4ccccc4o3)cc2)no1
[1]
  Activity: 65.2%
Acetylcholinesterase
  IC50: 283 nM
[2]
  Activity: 71.7%

## CCOC(=O)c1ccc(N/C=C/C(=O)c2cc3ccccc3o2)cc1
[1]
  Activity: 28.6%
Acetylcholinesterase
  IC50: 2130 nM
[2]
  Activity: 21.4%

## O=C(/C=C/Nc1ccc(S(=O)(=O)Nc2ccccn2)cc1)c1cc2ccccc2o1
[1]
  Activity: 76.1%
Acetylcholinesterase
  IC50: 1070 nM
[2]
  Activity: 2.2%

## O=C(/C=C/Nc1cccc([N+](=O)[O-])c1)c1cc2ccccc2o1
[1]
  Activity: 82.6%
Acetylcholinesterase
  IC50: 736 nM
[2]
  Activity: 76.1%

## CN(C)/C=C/C(=O)c1cc2ccccc2o1
[1]
  Activity: 56.4%
Acetylcholinesterase
  IC50: 2690 nM
[2]
  Activity: 11.4%

## O=C(/C=C/Nc1ccccc1C(=O)O)c1cc2ccccc2o1
[1]
  Activity: 65%
Acetylcholinesterase
  IC50: 2070 nM
[2]
  Activity: 23.5%

## O=C(/C=C/Nc1ccccc1O)c1cc2ccccc2o1
[1]
  Activity: 90%
Acetylcholinesterase
  IC50: 308 nM
[2]
  Activity: 65.5%

## Cc1ccc(N/C=C/C(=O)c2cc3ccccc3o2)cc1
[1]
  Activity: 40%
Acetylcholinesterase
  IC50: 397 nM
[2]
  Activity: 21.3%

## O=C(/C=C/Nc1ccc(Br)cc1)c1cc2ccccc2o1
[1]
  Activity: 27%
Acetylcholinesterase
  IC50: 1100 nM
[2]
  Activity: 22.2%

## CC(=O)c1cccc(N/C=C/C(=O)c2cc3ccccc3o2)c1
[13]
  Activity: 3.3 mg/dL
[14]
  Activity: Non-Toxic
[15]
  Activity: 0.72 mg/dL
[16]
  Activity: Non-Toxic
[17]
  Activity: Non-Toxic
Rattus norvegicus [3]
  Activity: 24.09%
[18]
  Activity: 42.16%
[19]
  Activity: 29 U/L
[20]
  Activity: 0.67 mg/dL
[21]
  Activity: Non-Toxic
Rattus norvegicus [4]
  Activity: 103.35%
[22]
  mortality at 24 h: 25%
[23]
  Activity: 6.29 10^6/µL
[24]
  Activity: Non-Toxic
[25]
  Activity: 16.6%
Rattus norvegicus [5]
  Activity: <10%
[26]
  Activity: 6.9 fL
Rattus norvegicus [6]
  Activity: 16.32 mg
[1]
  Activity: 67.6%
[27]
  Activity: Non-Toxic
Rattus norvegicus [28]
  Activity: Active
[29]
  Activity: 39.4%
[30]
  Activity: 32 mg/dL
Rattus norvegicus [7]
  Activity: 242.95%
Acetylcholinesterase
  IC50: 190 nM
[31]
  Activity: 115 mg/dL
[32]
  Activity: 56 fL
[2]
  Activity: 63.1%
Rattus norvegicus [8]
  Activity: 57.14 nmol
Rattus norvegicus [9]
  Activity: 26.98%
[33]
  Activity: 136 U/L
Rattus norvegicus [10]
  Activity: 107.04%
[34]
  Activity: 14.8 g/dL
[35]
  Activity: 18.6 pg
Rattus norvegicus [11]
  Time: 27 s
[36]
  Activity: Non-Toxic
[37]
  Activity: 68 U/L
Rattus norvegicus [12]
  Activity: <10%
[38]
  Activity: Non-Toxic
[39]
  Activity: Non-Toxic
[40]
  Activity: 31 g/dL

## NS(=O)(=O)c1ccc(N/C=C/C(=O)c2cc3ccccc3o2)cc1
[1]
  Activity: 13%
Acetylcholinesterase
  IC50: 882 nM
[2]
  Activity: 18.4%

## O=C(O)c1cccc(N/C=C/C(=O)c2cc3ccccc3o2)c1
[1]
  Activity: 65%
Acetylcholinesterase
  IC50: 3770 nM
[2]
  Activity: 22.5%

## O=C(/C=C/Nc1ccc(Cl)cc1)c1cc2ccccc2o1
[1]
  Activity: 65.3%
Acetylcholinesterase
  IC50: 2140 nM
[2]
  Activity: 28.2%

## O=C(/C=C/Nc1ccc(F)cc1)c1cc2ccccc2o1
[1]
  Activity: 76.1%
Acetylcholinesterase
  IC50: 487 nM
[2]
  Activity: 73.9%

## CC(=O)c1ccc(N/C=C/C(=O)c2cc3ccccc3o2)cc1
[1]
  Activity: 27%
Acetylcholinesterase
  IC50: 5910 nM
[2]
  Activity: 10%
